Assays:
Format in all cases: cell-based
MDA-MB-435 = assay: Cytotoxicity against human MDA-MB-435 cells after 72 hrs; conditions: MDA-MB-435, 72 h
[1] = Cytotoxicity against human PC-3MIE8 cells after 72 hrs; conditions: PC-3MIE8, 72 h
[2] = Cytotoxicity against human Bel7402 cells after 72 hrs; conditions: Bel-7402, 72 h
HeLa = assay: Cytotoxicity against human HeLa cells after 72 hrs
HL-60 = assay: Cytotoxicity against human HL60 cells after 72 hrs; conditions: HL-60, 72 h
[3] = Cytotoxicity against human BGC823 cells after 72 hrs; conditions: BGC-823, 72 h

Measured: IC50

O=C(O)C(Cc1ccccc1)NCc1ccc2ccc3cccnc3c2n1 (configuration not stated)
> 100 µM: MDA-MB-435 | [1] | [2] | HeLa | HL-60 | [3]

O=C(O)C(Cc1ccc(O)cc1)NCc1ccc2ccc3cccnc3c2n1 (configuration not stated)
> 100 µM: MDA-MB-435 | [1] | [2] | HeLa | HL-60 | [3]

Source: ChEMBL document CHEMBL1144501, “Synthesis, characterization and biological activity of complexes of lanthanum(III) with 2-(1'-phenyl- 2'-carboxyl-3'-aza-n-butyl)-1,10-phenanthroline and 2-(1'-p-phenol-2'-carboxyl-3'-aza-n-butyl)-1,10-phenanthroline” (Bioorg Med Chem, 2007)
